The target of assay [1] is T1, AhR (Homo sapiens, UniProt P35869).
T1 construct: host or cells: HepG2
T1 sequence (P35869 11-848): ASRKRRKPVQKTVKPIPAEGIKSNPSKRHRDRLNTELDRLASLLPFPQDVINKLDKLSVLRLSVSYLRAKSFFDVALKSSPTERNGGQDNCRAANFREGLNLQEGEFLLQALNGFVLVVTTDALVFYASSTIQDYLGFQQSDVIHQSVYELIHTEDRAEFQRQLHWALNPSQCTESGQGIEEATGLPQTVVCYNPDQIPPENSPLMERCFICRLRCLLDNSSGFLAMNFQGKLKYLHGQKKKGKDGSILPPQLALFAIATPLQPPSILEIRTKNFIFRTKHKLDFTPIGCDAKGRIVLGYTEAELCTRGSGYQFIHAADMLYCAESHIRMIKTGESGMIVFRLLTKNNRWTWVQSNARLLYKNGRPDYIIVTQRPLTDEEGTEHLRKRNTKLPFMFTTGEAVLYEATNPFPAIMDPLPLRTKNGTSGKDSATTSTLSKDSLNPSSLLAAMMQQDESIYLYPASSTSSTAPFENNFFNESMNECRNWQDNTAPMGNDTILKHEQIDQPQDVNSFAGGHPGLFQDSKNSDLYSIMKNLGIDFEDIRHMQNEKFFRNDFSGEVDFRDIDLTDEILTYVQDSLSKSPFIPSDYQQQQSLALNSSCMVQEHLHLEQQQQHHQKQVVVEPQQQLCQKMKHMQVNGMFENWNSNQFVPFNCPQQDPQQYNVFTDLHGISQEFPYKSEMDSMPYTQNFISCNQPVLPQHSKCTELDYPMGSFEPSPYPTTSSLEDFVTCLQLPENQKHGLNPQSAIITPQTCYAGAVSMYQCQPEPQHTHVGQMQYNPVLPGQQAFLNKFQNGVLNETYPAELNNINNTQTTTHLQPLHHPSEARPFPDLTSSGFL
Kind of assay: In vitro assay 3: XRE-luciferase reporter assay, agonism in human cell line (HepG2). In kind it is cell-based. The settings on record: HepG2 XRE-Luc, tryptophan free medium, test compound alone, 6 hours. An excerpt:
In Vitro XRE-Luciferase Reporter Assay (In Vitro Assay 1, 2, 3)
AhR activation leads the induction of target gene expression such as CYP1A1 and CYP1B1 by AhR binding to AhR-responsive DNA elements also known as xenobiotics responsive elements (XRE). The assay for measuring AhR activity herein is the luciferase assay using cell lines transfected with luciferase reporter plasmid containing XREs at the upstream of the reporter gene. Cells transfected with XRE-luciferase reporter (XRE-Luc) plasmid drive luciferase activity reflecting activation and inhibition of AhR in the cells. In addition to transfection with XRE-reporter vector, cells were co-transfected with Nano-luciferase reporter gene construct (Nano-Luc) containing constitutively active promoter as internal control. Kynurenine (an endogenous AhR agonist) was used to stimulate cells to test antagonistic properties of the compounds. The half-maximal inhibitory concentration (IC50) or half-maximal effective concentration (EC50) value was calculated using nonlinear regression (four parameters) with Prism8.0 software (GraphPad).
In Vitro Assay 3: Agonism in Human Cell Line
HepG2 (human hepatoma cell line) cells co-transfected with XRE-Luc and Nano-Luc plasmids were plated in tryptophan free medium containing 1% of dialyzed fetal bovine serum and incubated overnight at 37° C. in a CO2 incubator. After 24 hours, cells were treated for 6 hours with test compounds or not. Firefly luciferase and Nano-luciferase activity was measured using Nano-glo Luciferase kit (Promega) and relative luciferase activity (Firefly/Nano-Luc) was used to calculate EC50 values. As a positive control, cells were incubated with TCDD. (EC50 Values are grouped as A, B, C and D, whereby A: EC50<0.1 μM; B: 0.1<EC50<1.0 μM; C: 1.0<EC50<10 μM; D: EC50>10 μM)
(In general: A reporter such as luciferase makes a cellular process visible.)

In assay [2] the target is T1, AhR. Put plainly: In vitro assay 1: XRE-luciferase reporter assay, antagonism in human cell line (HepG2). The assay is classed as cell-based. Conditions: HepG2 XRE-luciferase, 6 hours, read-out: Assay 1: AhR-Luc Human Antagonism (IC50). The method, boiled down: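 HepG2 cells carrying XRE-firefly luciferase (transient or stable) plus constitutive Nano-Luc control, stimulated 6 h with kynurenine (50 or 200 μM) with or without compound. Firefly/Nano-Luc ratio normalized to kynurenine-alone (maximum) and vehicle (minimum); IC50 by four-parameter nonlinear regression.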

Setting [3] is: read-out: Assay 3: AhR-Luc Human Agonism (EC50).
[4] abbreviates: read-out: Assay 3: AhR-Luc Human Agonism (EC50, nM), class in brackets.
[5] abbreviates: cells treated with kynurenine 50 μM (*).
Setting [6] is: cells treated with kynurenine 200 μM (no *).

This note sets out measurements from patent US20230147257A1 (DONG-A ST CO., LTD., priority 2020, published 2023).

Where two headings read alike, the source gives them in different places.

With `CC(CO)n1cnc2c(-c3cnn(C)c3)nc(-c3ccc(Cl)cc3)cc2c1=O` (centres unmarked) [Example 48, 6-(4-chlorophenyl)-3-(1-hydroxypropan-2-yl)-8-(1-methyl-1H-pyrazol-4-yl)pyrido[3,4-d]pyrimidin-4(3H)-one], the EC50 (usually the concentration that produces a half-maximal response) was over 30000 nM on AhR [1] (setting [3]) and over 10000 nM at AhR [1] (setting [4]). The IC50 (as a rule, the concentration that inhibits the measured activity by half) at AhR [2] (setting [5]) is under 0.01 µM.
Turning to `CC(CO)N1CNc2c(cc(-c3ccc(C(F)(F)F)cc3)nc2-c2cnn(C)c2)C1=O` (centres unmarked) [Example 59, 3-(1-hydroxypropan-2-yl)-8-(1-methyl-1H-pyrazol-4-yl)-6-(4-(trifluoromethyl)phenyl)-2,3-dihydropyrido[3,4-d]pyrimidin-4(1H)-one], the EC50 at AhR [1] (setting [3]) is over 30000 nM; on AhR [1] (setting [4]), over 10000 nM. Also, the IC50 on AhR [2] (setting [5]) is under 0.01 µM.
As for `CS(=O)(=O)CCn1cnc2c(-c3cccnc3)nc(-c3ccc(C(F)(F)F)cc3)cc2c1=O` [Example 76, 3-(2-(methylsulfonyl)ethyl)-8-(pyridin-3-yl)-6-(4-(trifluoromethyl)phenyl)pyrido[3,4-d]pyrimidin-4(3H)-one], the figures for the EC50 on AhR [1] (setting [3]) and on AhR [1] (setting [4]) were over 30000 nM and over 10000 nM, respectively. Further, the IC50 at AhR [2] (setting [6]) is under 0.01 µM.
With `CC(CO)n1cnc2c(-c3cccnc3)nc(-c3ccc(C(F)(F)F)nc3)cc2c1=O` (centres unmarked) [Example 50, 3-(1-hydroxypropan-2-yl)-8-(pyridin-3-yl)-6-(6-(trifluoromethyl)pyridin-3-yl)pyrido[3,4-d]pyrimidin-4(3H)-one], on AhR [1] (setting [3]), the EC50 amounted to 2050 nM. In addition, the IC50 at AhR [2] (setting [5]) is under 0.01 µM.
Turning to `CC(O)Cn1cnc2c(-c3cnn(C)c3)nc(-c3ccc(C(F)(F)F)nc3)cc2c1=O` (centres unmarked) [Example 14, 3-(2-hydroxypropyl)-8-(1-methyl-1H-pyrazol-4-yl)-6-(6-(trifluoromethyl)pyridin-3-yl)pyrido[3,4-d]pyrimidin-4(3H)-one], the results for the EC50 on AhR [1] (setting [3]) and on AhR [1] (setting [4]) were over 30000 nM and over 10000 nM, respectively. Moreover, the IC50 on AhR [2] (setting [5]) was under 0.01 µM.
As for `Cn1cc(-c2nc(-c3ccc(C(F)(F)F)cc3)cc3c(=O)n([C@H]4CC[C@H](O)CC4)cnc23)cn1` [Example 8, 3-((1r,4r)-4-hydroxycyclohexyl)-8-(1-methyl-1H-pyrazol-4-yl)-6-(4-(trifluoromethyl)phenyl)pyrido[3,4-d]pyrimidin-4(3H)-one], the values for the EC50 at AhR [1] (setting [3]) and at AhR [1] (setting [4]) were over 30000 nM and over 10000 nM, respectively. Moreover, at AhR [2] (setting [5]), the IC50 was under 0.01 µM.
`CCC(CO)n1cnc2c(-c3cnn(C)c3)nc(-c3ccc(Cl)cc3)cc2c1=O` (centres unmarked) [Example 52, 6-(4-chlorophenyl)-3-(1-hydroxybutan-2-yl)-8-(1-methyl-1H-pyrazol-4-yl)pyrido[3,4-d]pyrimidin-4(3H)-one]: the EC50 on AhR [1] (setting [3]) was 290 nM. At AhR [2] (setting [5]), the IC50 is under 0.01 µM.
`O=c1c2cc(-c3ccc(Cl)cc3)nc(-c3cccnc3)c2ncn1CC(O)CO` (centres unmarked) [Example 67, 6-(4-chlorophenyl)-3-(2,3-dihydroxypropyl)-8-(pyridin-3-yl)pyrido[3,4-d]pyrimidin-4(3H)-one]: the figures for the EC50 on AhR [1] (setting [3]) and on AhR [1] (setting [4]) were over 30000 nM and over 10000 nM, respectively. On AhR [2] (setting [6]), the IC50 was under 0.01 µM.
As to `CCC(CO)n1cnc2c(-c3cccc(F)c3)nc(-c3ccc(Cl)cc3)cc2c1=O` (centres unmarked) [Example 55, 6-(4-chlorophenyl)-8-(3-fluorophenyl)-3-(1-hydroxybutan-2-yl)pyrido[3,4-d]pyrimidin-4(3H)-one], the EC50 at AhR [1] (setting [3]) amounted to 1370 nM. Further, the IC50 at AhR [2] (setting [5]) was under 0.01 µM.
For `CS(=O)(=O)CCn1cnc2c(-c3cccnc3)nc(-c3ccc(Cl)cc3)cc2c1=O` [Example 77, 6-(4-chlorophenyl)-3-(2-(methylsulfonyl)ethyl)-8-(pyridin-3-yl)pyrido[3,4-d]pyrimidin-4(3H)-one], the EC50 at AhR [1] (setting [3]) is over 30000 nM; at AhR [1] (setting [4]), over 10000 nM. The IC50 at AhR [2] (setting [6]) is under 0.01 µM.
For `CC(CNS(C)(=O)=O)n1cnc2c(-c3cccnc3)nc(-c3ccc(Cl)cc3)cc2c1=O` (centres unmarked) [Example 89, N-(2-(6-(4-chlorophenyl)-4-oxo-8-(pyridin-3-yl)pyrido[3,4-d]pyrimidin-3(4H)-yl)propyl)methanesulfonamide], in that order: over 30000 nM, over 10000 nM and under 0.01 µM.
On to `Cn1cc(-c2nc(-c3ccc(Cl)cc3)cc3c(=O)n([C@H]4CC[C@H](O)CC4)cnc23)cn1` [Example 10, 6-(4-chlorophenyl)-3-((1r,4r)-4-hydroxycyclohexyl)-8-(1-methyl-1H-pyrazol-4-yl)pyrido[3,4-d]pyrimidin-4(3H)-one], for which the EC50 was over 30000 nM on AhR [1] (setting [3]) and over 10000 nM on AhR [1] (setting [4]). Moreover, the IC50 on AhR [2] (setting [5]) is under 0.01 µM.
For the molecule `CS(=O)(=O)N1CCC(n2cnc3c(-c4cccnc4)nc(-c4ccc(Cl)cc4)cc3c2=O)CC1` [Example 94, 6-(4-chlorophenyl)-3-(1-(methylsulfonyl)piperidin-4-yl)-8-(pyridin-3-yl)pyrido[3,4-d]pyrimidin-4(3H)-one], the EC50 is over 30000 nM at AhR [1] (setting [3]) and over 10000 nM at AhR [1] (setting [4]). Further, the IC50 at AhR [2] (setting [6]) is under 0.01 µM.
As for `O=c1c2cc(-c3ccc(N4CCOCC4)cc3)nc(-c3cccnc3)c2ncn1CC(O)CO` (centres unmarked) [Example 82, 3-(2,3-dihydroxypropyl)-6-(4-morpholinophenyl)-8-(pyridin-3-yl)pyrido[3,4-d]pyrimidin-4(3H)-one], the EC50 was over 30000 nM at AhR [1] (setting [3]) and over 10000 nM on AhR [1] (setting [4]). Further, the IC50 at AhR [2] (setting [6]) was under 0.01 µM.
In the case of `O=c1c2cc(-c3ccc(C(F)(F)F)cc3)nc(-c3cccnc3)c2ncn1[C@H]1CC[C@H](O)CC1` [Example 57, 3-((1r,4r)-4-hydroxycyclohexyl)-8-(pyridin-3-yl)-6-(4-(trifluoromethyl)phenyl)pyrido[3,4-d]pyrimidin-4(3H)-one], the EC50 on AhR [1] (setting [3]) is 4480 nM. Moreover, the IC50 at AhR [2] (setting [5]) is under 0.01 µM.
For `CC(CO)n1cnc2c(-c3cccnc3)nc(-c3ccc(OC(F)(F)F)cc3)cc2c1=O` (centres unmarked) [Example 49, 3-(1-hydroxypropan-2-yl)-8-(pyridin-3-yl)-6-(4-(trifluoromethoxy)phenyl)pyrido[3,4-d]pyrimidin-4(3H)-one], in that order: 9660 nM and under 0.01 µM.
With `O=c1c2cc(-c3ccc(Cl)cc3)nc(-c3cccnc3)c2ncn1C1CCN(S(=O)(=O)C2CC2)CC1` [Example 95, 6-(4-chlorophenyl)-3-(1-(cyclopropylsulfonyl)piperidin-4-yl)-8-(pyridin-3-yl)pyrido[3,4-d]pyrimidin-4(3H)-one], the EC50 on AhR [1] (setting [3]) was over 30000 nM; on AhR [1] (setting [4]) it was over 10000 nM. At AhR [2] (setting [6]), the half-inhibitory concentration (IC50) was under 0.01 µM.
Take `CC(CO)n1cnc2c(-c3cccnc3)nc(-c3ccc(C(F)(F)F)cc3)cc2c1=O` (centres unmarked) [Example 44, 3-(1-hydroxypropan-2-yl)-8-(pyridin-3-yl)-6-(4-(trifluoromethyl)phenyl)pyrido[3,4-d]pyrimidin-4(3H)-one]: the EC50 on AhR [1] (setting [3]) was over 30000 nM; at AhR [1] (setting [4]), over 10000 nM. Moreover, the 50% inhibitory concentration (IC50) at AhR [2] (setting [5]) was under 0.01 µM.
On to `Cn1cc(-c2nc(-c3ccc(Cl)cc3)cc3c(=O)n(C4CCCC(O)C4)cnc23)cn1` (centres unmarked) [Example 64, 6-(4-chlorophenyl)-3-(3-hydroxycyclohexyl)-8-(1-methyl-1H-pyrazol-4-yl)pyrido[3,4-d]pyrimidin-4(3H)-one], for which the IC50 at AhR [2] (setting [6]) is 0.01 to 0.1 µM.
